Reference: publication PMC9571063 (Molecules, 2022)
Counter-ions that a name gives are not always drawn. Like-named read-outs stand apart in the source and are kept apart here.

Columns and labels:
HsDYRK1A = molecular target: T1, HsDYRK1A (Homo sapiens, UniProt Q13627); experiment: ADP-Glo kinase assay; format: biochemical; settings: for remaining activity at 1 µM / remaining activity at 10 µM: n=2, read-out: % of residual activity Hs_DYRK1A
T1 construct: host or cells: Sf9 insect cells (baculovirus)

MmCLK1 = molecular target: T2, MmCLK1 (Mus musculus, UniProt P22518); experiment: ADP-Glo kinase assay; format: biochemical; settings: for remaining activity at 1 µM / remaining activity at 10 µM: n=2, read-out: % of residual activity Mm_CLK1
T2 construct: host or cells: bacteria
T2 sequence (P22518 whole entry): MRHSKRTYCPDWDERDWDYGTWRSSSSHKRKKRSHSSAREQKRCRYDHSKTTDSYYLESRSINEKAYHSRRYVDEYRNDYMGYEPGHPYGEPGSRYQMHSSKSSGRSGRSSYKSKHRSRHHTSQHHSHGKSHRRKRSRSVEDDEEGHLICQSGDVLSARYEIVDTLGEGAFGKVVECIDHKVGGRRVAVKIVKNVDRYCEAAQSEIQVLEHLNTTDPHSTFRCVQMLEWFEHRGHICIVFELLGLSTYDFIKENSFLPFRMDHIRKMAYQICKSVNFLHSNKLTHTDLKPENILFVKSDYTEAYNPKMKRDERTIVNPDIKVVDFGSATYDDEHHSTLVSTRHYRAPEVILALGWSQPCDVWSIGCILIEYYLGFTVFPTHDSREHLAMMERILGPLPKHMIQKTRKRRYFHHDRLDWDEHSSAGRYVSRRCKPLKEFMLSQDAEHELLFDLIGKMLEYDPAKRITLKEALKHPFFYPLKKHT

Hs_CDK5/p25 = molecular target: T3, Hs_CDK5/p25 (Homo sapiens, UniProt Q00535); experiment: ADP-Glo kinase assay, primary screen; format: biochemical; settings: n=2, read-out: % of residual activity Hs_CDK5/p25
T3 construct: host or cells: bacteria
T3 sequence (Q00535 whole entry): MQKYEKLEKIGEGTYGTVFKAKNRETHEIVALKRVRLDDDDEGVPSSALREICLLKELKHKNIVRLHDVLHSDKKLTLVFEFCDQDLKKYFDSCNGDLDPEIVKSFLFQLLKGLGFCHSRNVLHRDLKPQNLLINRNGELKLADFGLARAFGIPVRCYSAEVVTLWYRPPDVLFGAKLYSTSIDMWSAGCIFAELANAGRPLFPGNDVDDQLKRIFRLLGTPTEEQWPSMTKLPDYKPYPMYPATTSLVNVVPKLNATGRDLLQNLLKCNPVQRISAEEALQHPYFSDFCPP
T3 sequence (Q15078 99-307 partner limits assumed): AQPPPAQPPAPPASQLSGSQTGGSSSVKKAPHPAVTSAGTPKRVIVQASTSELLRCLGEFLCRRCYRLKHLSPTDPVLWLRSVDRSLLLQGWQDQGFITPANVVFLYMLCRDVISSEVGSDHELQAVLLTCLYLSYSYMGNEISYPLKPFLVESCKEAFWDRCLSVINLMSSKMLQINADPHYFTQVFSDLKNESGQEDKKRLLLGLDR

Hs_CDK9/CyclinT = molecular target: T4, Hs_CDK9/CyclinT (Homo sapiens, UniProt P50750); experiment: ADP-Glo kinase assay, primary screen; format: biochemical; settings: n=2, read-out: % of residual activity Hs_CDK9/CyclinT
T4 construct: host or cells: Sf9 insect cells (baculovirus)
T4 sequence (P50750 whole entry): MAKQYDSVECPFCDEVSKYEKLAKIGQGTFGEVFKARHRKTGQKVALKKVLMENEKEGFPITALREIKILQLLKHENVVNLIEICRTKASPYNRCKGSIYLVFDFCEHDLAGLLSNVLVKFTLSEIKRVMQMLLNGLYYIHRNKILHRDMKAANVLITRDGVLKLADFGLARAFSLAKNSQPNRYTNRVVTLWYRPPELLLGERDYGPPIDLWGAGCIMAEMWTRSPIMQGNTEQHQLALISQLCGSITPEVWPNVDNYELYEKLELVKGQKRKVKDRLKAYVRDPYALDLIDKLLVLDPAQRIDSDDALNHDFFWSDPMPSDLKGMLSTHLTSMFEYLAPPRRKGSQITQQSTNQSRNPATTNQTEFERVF
T4 sequence (O60563 whole entry partner): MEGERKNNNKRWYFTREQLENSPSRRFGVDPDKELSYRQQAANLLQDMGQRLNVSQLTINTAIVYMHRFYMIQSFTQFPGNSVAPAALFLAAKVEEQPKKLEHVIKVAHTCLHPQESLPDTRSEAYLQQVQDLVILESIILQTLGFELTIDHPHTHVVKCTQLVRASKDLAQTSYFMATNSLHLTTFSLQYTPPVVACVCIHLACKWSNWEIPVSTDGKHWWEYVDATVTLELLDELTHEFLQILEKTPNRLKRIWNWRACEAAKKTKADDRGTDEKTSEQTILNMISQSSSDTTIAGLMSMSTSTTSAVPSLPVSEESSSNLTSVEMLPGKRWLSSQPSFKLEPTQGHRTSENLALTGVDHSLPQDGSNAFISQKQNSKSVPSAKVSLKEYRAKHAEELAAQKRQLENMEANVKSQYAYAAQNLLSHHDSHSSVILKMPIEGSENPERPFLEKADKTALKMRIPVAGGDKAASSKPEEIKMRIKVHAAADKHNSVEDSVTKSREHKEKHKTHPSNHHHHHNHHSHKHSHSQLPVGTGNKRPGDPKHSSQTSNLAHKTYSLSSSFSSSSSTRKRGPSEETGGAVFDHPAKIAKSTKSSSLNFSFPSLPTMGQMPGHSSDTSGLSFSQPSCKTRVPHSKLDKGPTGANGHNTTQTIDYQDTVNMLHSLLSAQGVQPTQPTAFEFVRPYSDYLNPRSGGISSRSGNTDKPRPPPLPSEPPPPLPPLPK

Hs_PIM1 = molecular target: T5, Hs_PIM1 (Homo sapiens, UniProt P11309); experiment: ADP-Glo kinase assay, primary screen; format: biochemical; settings: n=2, read-out: % of residual activity Hs_PIM1
T5 construct: host or cells: Sf9 insect cells (baculovirus)
T5 sequence (P11309 whole entry): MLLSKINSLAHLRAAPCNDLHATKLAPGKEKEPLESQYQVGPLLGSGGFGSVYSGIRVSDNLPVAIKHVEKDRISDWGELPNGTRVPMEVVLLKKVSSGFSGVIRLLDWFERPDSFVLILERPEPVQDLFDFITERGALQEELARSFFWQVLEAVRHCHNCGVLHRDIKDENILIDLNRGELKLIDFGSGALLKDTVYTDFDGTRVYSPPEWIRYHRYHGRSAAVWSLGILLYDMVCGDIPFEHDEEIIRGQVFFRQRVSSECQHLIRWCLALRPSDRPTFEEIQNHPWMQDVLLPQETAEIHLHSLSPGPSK

Rn_DYRK1A = molecular target: T6, Rn_DYRK1A (Rattus norvegicus, UniProt Q63470); experiment: ADP-Glo kinase assay, primary screen; format: biochemical; settings: n=2, read-out: % of residual activity Rn_DYRK1A
T6 construct: host or cells: bacteria

Hs_HASPIN = molecular target: T7, Hs_HASPIN (Homo sapiens, UniProt Q8TF76); experiment: ADP-Glo kinase assay, primary screen; format: biochemical; settings: n=2, read-out: % of residual activity Hs_HASPIN
T7 construct: host or cells: bacteria
T7 sequence (Q8TF76 1-798): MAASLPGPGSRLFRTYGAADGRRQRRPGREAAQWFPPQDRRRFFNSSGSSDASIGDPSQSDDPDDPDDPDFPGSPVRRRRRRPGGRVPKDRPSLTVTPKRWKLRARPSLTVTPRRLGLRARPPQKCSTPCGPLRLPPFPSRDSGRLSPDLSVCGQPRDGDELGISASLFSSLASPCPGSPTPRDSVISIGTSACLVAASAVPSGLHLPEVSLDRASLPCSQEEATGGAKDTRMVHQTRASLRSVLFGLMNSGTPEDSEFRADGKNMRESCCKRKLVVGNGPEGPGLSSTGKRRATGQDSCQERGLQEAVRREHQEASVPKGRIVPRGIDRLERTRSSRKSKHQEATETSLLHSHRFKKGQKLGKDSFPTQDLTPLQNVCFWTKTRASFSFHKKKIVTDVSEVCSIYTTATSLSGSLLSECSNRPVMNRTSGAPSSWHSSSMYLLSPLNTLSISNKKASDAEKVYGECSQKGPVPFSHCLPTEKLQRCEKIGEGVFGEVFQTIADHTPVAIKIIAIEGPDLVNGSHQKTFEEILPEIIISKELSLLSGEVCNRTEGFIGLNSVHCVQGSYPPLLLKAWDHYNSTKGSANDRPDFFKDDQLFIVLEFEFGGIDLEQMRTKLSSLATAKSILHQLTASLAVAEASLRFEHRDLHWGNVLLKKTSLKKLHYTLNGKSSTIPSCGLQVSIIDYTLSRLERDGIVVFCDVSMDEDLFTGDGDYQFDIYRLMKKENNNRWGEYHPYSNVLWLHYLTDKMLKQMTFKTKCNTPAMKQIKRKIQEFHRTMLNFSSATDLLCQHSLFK

Hs_GSK3β = molecular target: T8, Hs_GSK3β (Homo sapiens, UniProt P49841); experiment: ADP-Glo kinase assay, primary screen; format: biochemical; settings: n=2, read-out: % of residual activity Hs_GSK3β
T8 construct: host or cells: Sf9 insect cells (baculovirus)
T8 sequence (P49841 whole entry): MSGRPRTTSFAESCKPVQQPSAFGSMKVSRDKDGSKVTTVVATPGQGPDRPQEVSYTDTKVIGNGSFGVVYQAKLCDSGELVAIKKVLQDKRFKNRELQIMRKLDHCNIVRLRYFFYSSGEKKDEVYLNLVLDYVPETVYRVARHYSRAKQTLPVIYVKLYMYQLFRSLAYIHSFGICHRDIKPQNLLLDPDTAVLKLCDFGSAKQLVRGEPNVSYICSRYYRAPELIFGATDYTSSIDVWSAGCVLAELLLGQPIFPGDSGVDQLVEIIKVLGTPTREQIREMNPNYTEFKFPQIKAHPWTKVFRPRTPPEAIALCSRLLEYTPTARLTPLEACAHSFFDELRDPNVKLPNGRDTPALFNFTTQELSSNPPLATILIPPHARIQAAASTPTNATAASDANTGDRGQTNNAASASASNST

Hs_CK1ε = molecular target: T9, Hs_CK1ε (Homo sapiens, UniProt P49674); experiment: ADP-Glo kinase assay, primary screen; format: biochemical; settings: n=2, read-out: % of residual activity Hs_CK1ε
T9 construct: host or cells: Sf9 insect cells (baculovirus)
T9 sequence (P49674 whole entry): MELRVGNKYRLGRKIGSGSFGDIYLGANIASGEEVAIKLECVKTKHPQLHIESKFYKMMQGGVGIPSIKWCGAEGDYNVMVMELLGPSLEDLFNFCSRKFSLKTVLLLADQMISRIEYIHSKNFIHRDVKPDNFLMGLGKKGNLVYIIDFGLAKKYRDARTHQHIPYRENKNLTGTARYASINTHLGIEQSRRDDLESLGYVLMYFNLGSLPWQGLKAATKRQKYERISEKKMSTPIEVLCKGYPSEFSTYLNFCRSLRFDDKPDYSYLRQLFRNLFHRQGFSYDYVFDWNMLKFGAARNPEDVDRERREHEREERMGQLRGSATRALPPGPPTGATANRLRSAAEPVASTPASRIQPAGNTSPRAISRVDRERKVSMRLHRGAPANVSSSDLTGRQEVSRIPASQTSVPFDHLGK

[1] = cytotoxic assay, nuclei count (Hoechst, HCS); format: cell-based; settings: human, HuH7 cells (hepatocellular carcinoma); 48 h treatment; read-out: Cytotoxic studies IC50 HuH7
[2] = cytotoxic assay, nuclei count (Hoechst, HCS); format: cell-based; settings: human, Caco-2 cells (colorectal adenocarcinoma); 48 h treatment; read-out: Cytotoxic studies IC50 Caco2
[3] = cytotoxic assay, nuclei count (Hoechst, HCS); format: cell-based; settings: human, MDA-MB-231 cells (breast carcinoma); 48 h treatment; read-out: Cytotoxic studies IC50 MDA-MB-231
[4] = cytotoxic assay, nuclei count (Hoechst, HCS); format: cell-based; settings: human, 48 h treatment
Procedure: (§1) To complete our study, we performed a cytotoxicity screening of the 15 molecules, investigating 7 representative cancer cell lines. The compound’s effect on cell viability was evaluated on Huh-7 (hepatocellular carcinoma), CaCo2, HCT-116 (colorectal adenocarcinoma), MCF7, MDA-MB231, MDA-MB468 (breast carcinoma), PC3 (prostate carcinoma) and NCI-H727 (lung carcinoid). Human skin fibroblasts were used as reference for non-cancerous cells. Roscovitine, Doxorubicin and Taxol were used as positive controls. The cells were treated for 48 h with 25 µM compounds and fixed in cooled 90% ethanol/5% acetic acid for 20 min. The nuclei were stained with Hoechst 33342 and counted using HCS technology.
(§2) HuH7, CaCo-2, MDA-MB-231, HCT116, PC3, MCF7 and NCI-H727 cancer cell lines were obtained from the ECACC collection (Porton Down, UK). Cells were grown at 37 °C, 5% CO2 in ECACC recommended media: DMEM for HuH7, MDA-MB-231 and fibroblast, EMEM for MCF7and CaCo-2, McCoy’s for HCT116 and RPMI for PC3 and NCI-H727. All culture media were supplemented with 10% of FBS, 1% of penicillin-streptomycin and 2 mM glutamine.
(§3) Chemicals were solubilized in DMSO at a concentration of 10 mM (stock solution) and diluted in culture medium to the desired final concentrations.
[…] Cells were plated in 96 wells plates (4000 cells/well). Twenty-four hours after seeding, cells were exposed to chemicals. After 48 h of treatment, cells were washed in PBS and fixed in cooled 90% ethanol/5% acetic acid for 20 min and the nuclei were stained with Hoechst 33342 (B2261 Sigma). Image acquisition and analysis were performed using a CellomicsArrayScan VTI/HCS Reader (ThermoScientific, Waltham, MA, USA). The survival percentages were calculated as the percentage of cell number after compound treatment over cell number after DMSO treatment.

[5] = cytotoxic assay, nuclei count (Hoechst, HCS); format: cell-based; settings: human, MCF7 cells (breast carcinoma); 48 h treatment; read-out: Cytotoxic studies IC50 MCF7
Procedure: as §1, §2, §3
(§4) The cytotoxic assay of chemical was performed at 25 µM. Cells were plated in 96 wells plates (4000 cells/well). Twenty-four hours after seeding, cells were exposed to chemicals. After 48 h of treatment, cells were washed in PBS and fixed in cooled 90% ethanol/5% acetic acid for 20 min and the nuclei were stained with Hoechst 33342 (B2261 Sigma). Image acquisition and analysis were performed using a CellomicsArrayScan VTI/HCS Reader (ThermoScientific, Waltham, MA, USA). The survival percentages were calculated as the percentage of cell number after compound treatment over cell number after DMSO treatment.

[6] = cytotoxic assay, nuclei count (Hoechst, HCS); format: cell-based, human; settings: human, human skin fibroblasts (non-cancerous reference cells); 48 h treatment; some cells add low/moderate/high amplitude; read-out: Cytotoxic studies IC50 Fibroblasts
Procedure: as §1, §2, §3, §4

[7] = HCT116 cells (colorectal adenocarcinoma), read-out: Cytotoxic studies IC50 HCT116
[8] = MDA-MB-468 cells (breast carcinoma), read-out: Cytotoxic studies IC50 MDA-MB-468

CC(C)(C)OC(=O)N[C@H]1CC[C@H](n2cc(COc3cccc4cnc(Nc5cccc(Cl)c5)nc34)nn2)CC1 [18a, tert-Butyl ((trans)-4-(4-(((2-((3-chlorophenyl)amino)quinazolin-8-yl)oxy)methyl)-1H-1,2,3-triazol-1-yl)cyclohexyl)carbamate]
remaining activity at 1 µM (HsDYRK1A): ≥ 100%
remaining activity at 10 µM (HsDYRK1A): 66%
remaining activity at 1 µM (MmCLK1): 93%
remaining activity at 10 µM (MmCLK1): 70%
remaining activity at 1 µM (Hs_CDK5/p25): 69%
remaining activity at 10 µM (Hs_CDK5/p25): 58%
remaining activity at 1 µM (Hs_CDK9/CyclinT): 92%
remaining activity at 10 µM (Hs_CDK9/CyclinT): 59%
remaining activity at 1 µM (Hs_PIM1): 77%
remaining activity at 10 µM (Hs_PIM1): 74%
remaining activity at 1 µM (Rn_DYRK1A): 92%
remaining activity at 10 µM (Rn_DYRK1A): ≥ 100%
remaining activity at 1 µM (Hs_HASPIN): 77%
remaining activity at 10 µM (Hs_HASPIN): 70%
remaining activity at 1 µM (Hs_GSK3β): 88%
remaining activity at 10 µM (Hs_GSK3β): 60%
remaining activity at 1 µM (Hs_CK1ε): ≥ 100%
remaining activity at 10 µM (Hs_CK1ε): 78%
IC50 at 48 h [1]: 4 µM
IC50 at 48 h [2]: 16 µM
IC50 at 48 h [3]: 7 µM
IC50 at 48 h [4, 7]: 5 µM
IC50 at 48 h [4, 8]: 15 µM
IC50 at 48 h [5]: > 25 µM
IC50 at 48 h [6]: > 25 µM

CC(C)(C)OC(=O)N[C@H]1CC[C@H](n2cc(COc3cccc4cnc(Nc5cc(Cl)cc(Cl)c5)nc34)nn2)CC1 [18b, tert-Butyl ((trans)-4-(4-(((2-((3,5-dichlorophenyl)amino)quinazolin-8-yl)oxy)methyl)-1H-1,2,3-triazol-1-yl)cyclohexyl)carbamate]
remaining activity at 1 µM (HsDYRK1A): ≥ 100%
remaining activity at 10 µM (HsDYRK1A): 85%
remaining activity at 1 µM (MmCLK1): 86%
remaining activity at 10 µM (MmCLK1): 72%
remaining activity at 1 µM (Hs_CDK5/p25): 85%
remaining activity at 10 µM (Hs_CDK5/p25): 81%
remaining activity at 1 µM (Hs_CDK9/CyclinT): 98%
remaining activity at 10 µM (Hs_CDK9/CyclinT): 83%
remaining activity at 1 µM (Hs_PIM1): 94%
remaining activity at 10 µM (Hs_PIM1): 68%
remaining activity at 1 µM (Rn_DYRK1A): ≥ 100%
remaining activity at 10 µM (Rn_DYRK1A): ≥ 100%
remaining activity at 1 µM (Hs_HASPIN): 72%
remaining activity at 10 µM (Hs_HASPIN): 53%
remaining activity at 1 µM (Hs_GSK3β): 75%
remaining activity at 10 µM (Hs_GSK3β): 35%
remaining activity at 1 µM (Hs_CK1ε): ≥ 100%
remaining activity at 10 µM (Hs_CK1ε): 92%
IC50 at 48 h [1]: 10 µM
IC50 at 48 h [2]: > 25 µM
IC50 at 48 h [3]: > 25 µM
IC50 at 48 h [4, 7]: > 25 µM
IC50 at 48 h [4, 8]: > 25 µM
IC50 at 48 h [5]: > 25 µM
IC50 at 48 h [6]: > 25 µM

N[C@H]1CC[C@H](n2cc(COc3cccc4cnc(Nc5cccc(Cl)c5)nc34)nn2)CC1 [19a, 8-((1-((trans)-4-Aminocyclohexyl)-1H-1,2,3-triazol-4-yl)methoxy)-N-(3-chlorophenyl)quinazolin-2-amine hydrochloride]
remaining activity at 1 µM (HsDYRK1A): 84%
IC50 (HsDYRK1A; 10 µM ATP, duplicate): 3.72 µM
remaining activity at 10 µM (HsDYRK1A): 34%
remaining activity at 1 µM (MmCLK1): 20%
remaining activity at 10 µM (MmCLK1): 10%
IC50 (MmCLK1; mouse CLK1 orthologue, read-out: IC50 MmCLK1): 0.2 µM
remaining activity at 1 µM (Hs_CDK5/p25): ≥ 100%
remaining activity at 10 µM (Hs_CDK5/p25): 30%
remaining activity at 1 µM (Hs_CDK9/CyclinT): 65%
remaining activity at 10 µM (Hs_CDK9/CyclinT): 30%
remaining activity at 1 µM (Hs_PIM1): 62%
remaining activity at 10 µM (Hs_PIM1): 40%
remaining activity at 1 µM (Rn_DYRK1A): 78%
remaining activity at 10 µM (Rn_DYRK1A): 64%
remaining activity at 1 µM (Hs_HASPIN): 70%
remaining activity at 10 µM (Hs_HASPIN): 92%
remaining activity at 1 µM (Hs_GSK3β): 50%
remaining activity at 10 µM (Hs_GSK3β): 23%
remaining activity at 1 µM (Hs_CK1ε): 73%
remaining activity at 10 µM (Hs_CK1ε): 22%
IC50 at 48 h [1]: 8 µM
IC50 at 48 h [2]: 11 µM
IC50 at 48 h [3]: 6 µM
IC50 at 48 h [4, 7]: 7 µM
IC50 at 48 h [4, 8]: 7 µM
IC50 at 48 h [5]: 11 µM
IC50 at 48 h [6]: 1.3 µM
